Each compound was assayed on RSV A2 (assay: RSV antiviral cytopathic effect (CPE) assay, MTT readout). Settings: human respiratory syncytial virus, HEp-2, 120 h; HEp2 cells infected with RSV A2, moi ~0.01, 5 days; compounds of Table 2; read-out: Activity Range (EC50, RSV A2 antiviral).
Assay type: cell-based
Description: Biological Data Method P: RSV Antiviral Assay Protocol
Compounds of the invention were tested for their antiviral activity against respiratory syncytial virus. Cytopathic effect (CPE) assays were performed essentially as described in the literature (see for example Watanabe et al, 1994, J. Virological Methods, 48:257). Serial dilutions of the test compounds were made in 96 well plates. HEp2 cells (1.0×10^4 cells/well) were infected with RSV at a low multiplicity of infection (e.g. RSV A2 at an moi of ˜0.01) and added to plates to assess antiviral activity. Uninfected HEp2 cells were used to assess compound cytotoxicity. Assays were incubated for 5 days at 37° C. in a 5% CO2 atmosphere. The extent of CPE was determined via metabolism of the vital dye 3-(4, 5-dimethylthiaxol-2-yl)-2,5-diphenyltetrazolium bromide (MTT). MTT (1 mg/ml) was added to each well and plates incubated for 2 hours incubation at 37° C. Wells were aspirated, iso-propanol (200 μL) was added and absorbance values read at 540/690 nm. Compound concentrations that inhibited CPE by 50% (EC50) and developed cytotoxicity (CC50) were calculated using non-linear regression analysis.

SMILES	EC50 [nM]
O=C(c1ccc(F)cc1)N1CCN2C(=O)c3ccccc3CC12c1ccccc1 (stereo not drawn) [Compound 1-001]	250 to 1000
O=C(c1csc(-c2cccnc2)n1)N1CCN2C(=O)c3ccccc3CC12c1ccccc1 (stereo not drawn) [Compound 1-002]	250 to 1000
O=C(c1cccnc1)N1CCN2C(=O)c3ccccc3CC12c1ccccc1 (stereo not drawn) [Compound 1-003]	250 to 1000
O=C(c1ccc(F)cc1)N1CCN2C(=O)c3ccccc3CC12c1ccc(Cl)cc1 (stereo not drawn) [Compound 1-005]	> 5000
O=C(c1ccoc1)N1CCN2C(=O)c3ccccc3CC12c1ccc(Cl)cc1 (stereo not drawn) [Compound 1-006]	< 250
O=C(c1ccc(F)nc1)N1CCN2C(=O)c3ccccc3CC12c1ccc(Cl)cc1 (stereo not drawn) [Compound 1-007]	1000 to 5000
O=C(c1cccnc1)N1CCN2C(=O)c3ccccc3CC12c1ccc(Cl)cc1 (stereo not drawn) [Compound 1-008, 10a-(4-Chlorophenyl)-1-(pyridine-3-carbonyl)-2,3,10,10a-tetrahydro-1H-imidazo[1,2-b]isoquinolin-5-one]	1000 to 5000
O=C(c1ccoc1)N1CCN2C(=O)c3ccncc3CC12c1ccc(Cl)cc1 (stereo not drawn) [Compound 1-010]	250 to 1000
O=C(c1cccnc1)N1CCN2C(=O)c3cccnc3CC12c1ccc(Cl)cc1 (stereo not drawn) [Compound 1-014]	1000 to 5000
O=C(NCCc1ccccc1)N1CCN2C(=O)c3cccnc3CC12c1ccc(Cl)cc1 (stereo not drawn) [Compound 1-015]	250 to 1000
O=C1c2ccccc2CC2(c3ccc(Cl)cc3)N1CCN2C(=O)c1sccc1Cl (stereo not drawn) [Compound 1-019]	250 to 1000
O=C(c1ccno1)N1CCN2C(=O)c3ccccc3CC12c1ccc(Cl)cc1 (stereo not drawn) [Compound 1-025]	1000 to 5000
Cn1cc(C(=O)N2CCN3C(=O)c4ccccc4CC32c2ccc(Cl)cc2)c(C(F)(F)F)n1 (stereo not drawn) [Compound 1-029]	250 to 1000
O=C(c1ccoc1)N1CCN2C(=O)c3cccnc3CC12c1ccc(Cl)cc1 (stereo not drawn) [Compound 1-043]	< 250
O=C(Cc1ccccn1)N1CCN2C(=O)c3ccccc3CC12c1ccc(Cl)cc1 (stereo not drawn) [Compound 1-066]	1000 to 5000
COc1ccc(CC(=O)N2CCN3C(=O)c4ccccc4CC23c2ccc(Cl)cc2)cc1 (stereo not drawn) [Compound 1-069]	250 to 1000
O=C(c1ccoc1)N1CCN2C(=O)c3cccc(F)c3CC12c1ccc(Cl)cc1 (stereo not drawn) [Compound 1-071]	< 250
O=C(c1ccc(F)cc1)N1CCN2C(=O)c3cccc(F)c3CC12c1ccc(Cl)cc1 (stereo not drawn) [Compound 1-073]	250 to 1000
CCC(=O)N1CCN2C(=O)c3ccccc3CC12c1ccc(Cl)cc1 (stereo not drawn) [Compound 1-077]	1000 to 5000
O=C(CNS(=O)(=O)c1ccc(F)cc1)N1CCN2C(=O)c3ccccc3CC12c1ccc(Cl)cc1 (stereo not drawn) [Compound 1-079, N-{2-[10a-(4-Chlorophenyl)-5-oxo-2,3,10,10a-tetrahydro-5H-imidazo[1,2-b]isoquinolin-1-yl]-2-oxoethyl}-4-fluorobenzenesulfonamide]	250 to 1000
O=C(c1cccnc1)N1CCN2C(=O)c3ccc(F)cc3CC12c1ccc(Cl)cc1 (stereo not drawn) [Compound 1-083]	250 to 1000
Cn1cc(C(=O)N2CCN3C(=O)c4cccc(F)c4CC23c2ccc(Cl)cc2)c(C(F)(F)F)n1 (stereo not drawn) [Compound 1-087]	< 250
O=C(c1cccs1)N1CCN2C(=O)c3cccnc3CC12c1ccc(Cl)cc1 (stereo not drawn) [Compound 1-101]	< 250
O=C(c1ccc(F)cc1)N1CCN2C(=O)c3ncccc3CC12c1ccc(Cl)cc1 (stereo not drawn) [Compound 1-109]	1000 to 5000

— US9675694B2, “Polycyclic agents for the treatment of respiratory syncytial virus infections” (Biota Scientific Management Pty Ltd., priority 2006, dated 2017)
